Experimental data reported in the kinase profiling compilation of Christmann-Franck et al. (2016).

How the values were obtained:
Experiment in all cases: KINOMEscan competition binding
Conditions in all cases: compound 10.0 µM
[1] = biological target: DCLK1 (human) (UniProt O15075)
[2] = biological target: ERBB2 (human) (UniProt P04626)
[3] = biological target: MAP2K1 (human) (UniProt Q02750)
[4] = biological target: MET (human) (UniProt P08581)
[5] = biological target: STK33 (human) (UniProt Q9BYT3)
[6] = biological target: FGFR3 (human) (UniProt P22607)
[7] = biological target: MAPK9 (human) (UniProt P45984)
[8] = test system: PIK3CA (human), P42336 [M1043I]
[9] = biological target: MARK2 (human) (UniProt Q7KZI7)
[10] = biological target: PKMYT1 (human) (UniProt Q99640)
[11] = biological target: INSR (human) (UniProt P06213)
[12] = biological target: JAK3 JH1 catalytic (human) (UniProt P52333)
[13] = biological target: TESK1 (human) (UniProt Q15569)
[14] = biological target: EPHB2 (human) (UniProt P29323)
[15] = biological target: CSNK2A2 (human) (UniProt P19784)
[16] = biological target: MAP3K6 (human) (UniProt O95382)
[17] = biological target: CDK13 (human) (UniProt Q14004)
[18] = biological target: MYLK4 (human) (UniProt Q86YV6)
[19] = biological target: PI4KB (human) (UniProt Q9UBF8)
[20] = biological target: AURKB (human) (UniProt Q96GD4)
[21] = biological target: PIM3 (human) (UniProt Q86V86)
[22] = biological target: PAK6 (human) (UniProt Q9NQU5)
[23] = biological target: WEE2 (human) (UniProt P0C1S8)
[24] = biological target: MAP3K7 (human) (UniProt O43318)
[25] = biological target: PRKD2 (human) (UniProt Q9BZL6)
[26] = biological target: PRKAA1 (human) (UniProt Q13131)
[27] = biological target: CDK19 (human) (UniProt Q9BWU1)
[28] = biological target: MAP2K5 (human) (UniProt Q13163)
[29] = biological target: MINK1 (human) (UniProt Q8N4C8)
[30] = biological target: DAPK3 (human) (UniProt O43293)
[31] = biological target: IRAK4 (human) (UniProt Q9NWZ3)
[32] = biological target: DYRK1B (human) (UniProt Q9Y463)
[33] = biological target: LIMK1 (human) (UniProt P53667)
[34] = biological target: CAMKK1 (human) (UniProt Q8N5S9)
[35] = biological target: EPHA6 (human) (UniProt Q9UF33)
[36] = biological target: CDK11B (human) (UniProt P21127)
[37] = biological target: MAP3K12 (human) (UniProt Q12852)
[38] = biological target: CAMKK2 (human) (UniProt Q96RR4)
[39] = biological target: SLK (human) (UniProt Q9H2G2)
[40] = biological target: ROCK2 (human) (UniProt O75116)

MET (human), sequence (P08581 whole entry, looked up): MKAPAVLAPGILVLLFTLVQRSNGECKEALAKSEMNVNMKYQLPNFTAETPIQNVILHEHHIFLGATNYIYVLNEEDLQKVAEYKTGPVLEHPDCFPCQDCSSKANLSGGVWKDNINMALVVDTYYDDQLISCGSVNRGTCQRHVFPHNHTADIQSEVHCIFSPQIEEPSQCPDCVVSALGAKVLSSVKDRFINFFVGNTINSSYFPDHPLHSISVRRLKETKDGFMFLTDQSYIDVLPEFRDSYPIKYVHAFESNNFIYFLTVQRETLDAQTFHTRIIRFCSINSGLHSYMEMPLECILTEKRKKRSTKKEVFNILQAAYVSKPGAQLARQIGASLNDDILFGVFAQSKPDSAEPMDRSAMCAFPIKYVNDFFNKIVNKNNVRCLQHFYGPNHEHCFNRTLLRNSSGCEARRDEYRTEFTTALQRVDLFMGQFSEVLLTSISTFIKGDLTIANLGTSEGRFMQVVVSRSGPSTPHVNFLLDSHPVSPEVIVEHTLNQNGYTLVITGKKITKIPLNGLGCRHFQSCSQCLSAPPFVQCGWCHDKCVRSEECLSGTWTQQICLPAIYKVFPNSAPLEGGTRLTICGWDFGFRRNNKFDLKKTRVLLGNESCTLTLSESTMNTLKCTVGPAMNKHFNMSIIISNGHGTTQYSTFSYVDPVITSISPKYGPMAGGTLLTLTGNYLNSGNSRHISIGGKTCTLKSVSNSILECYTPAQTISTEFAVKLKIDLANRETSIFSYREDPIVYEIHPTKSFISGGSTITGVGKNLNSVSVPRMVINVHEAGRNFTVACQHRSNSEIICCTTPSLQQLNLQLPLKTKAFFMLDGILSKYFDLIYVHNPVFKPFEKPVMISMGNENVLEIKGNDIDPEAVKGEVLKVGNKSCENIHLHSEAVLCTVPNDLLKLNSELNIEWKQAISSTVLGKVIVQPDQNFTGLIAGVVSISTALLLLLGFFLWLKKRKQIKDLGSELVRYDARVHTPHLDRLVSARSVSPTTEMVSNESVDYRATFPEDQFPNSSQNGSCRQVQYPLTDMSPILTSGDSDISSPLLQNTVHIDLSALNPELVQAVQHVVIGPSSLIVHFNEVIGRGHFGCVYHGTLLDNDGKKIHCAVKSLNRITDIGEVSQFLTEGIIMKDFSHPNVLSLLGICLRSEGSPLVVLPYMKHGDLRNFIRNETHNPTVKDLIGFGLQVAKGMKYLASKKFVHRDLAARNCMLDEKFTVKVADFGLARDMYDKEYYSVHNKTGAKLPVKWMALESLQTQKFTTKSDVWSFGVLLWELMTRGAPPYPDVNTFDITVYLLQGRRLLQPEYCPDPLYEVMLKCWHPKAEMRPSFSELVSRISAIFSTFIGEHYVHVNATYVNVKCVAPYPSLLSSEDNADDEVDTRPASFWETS
CDK13 (human), sequence (Q14004 whole entry, looked up): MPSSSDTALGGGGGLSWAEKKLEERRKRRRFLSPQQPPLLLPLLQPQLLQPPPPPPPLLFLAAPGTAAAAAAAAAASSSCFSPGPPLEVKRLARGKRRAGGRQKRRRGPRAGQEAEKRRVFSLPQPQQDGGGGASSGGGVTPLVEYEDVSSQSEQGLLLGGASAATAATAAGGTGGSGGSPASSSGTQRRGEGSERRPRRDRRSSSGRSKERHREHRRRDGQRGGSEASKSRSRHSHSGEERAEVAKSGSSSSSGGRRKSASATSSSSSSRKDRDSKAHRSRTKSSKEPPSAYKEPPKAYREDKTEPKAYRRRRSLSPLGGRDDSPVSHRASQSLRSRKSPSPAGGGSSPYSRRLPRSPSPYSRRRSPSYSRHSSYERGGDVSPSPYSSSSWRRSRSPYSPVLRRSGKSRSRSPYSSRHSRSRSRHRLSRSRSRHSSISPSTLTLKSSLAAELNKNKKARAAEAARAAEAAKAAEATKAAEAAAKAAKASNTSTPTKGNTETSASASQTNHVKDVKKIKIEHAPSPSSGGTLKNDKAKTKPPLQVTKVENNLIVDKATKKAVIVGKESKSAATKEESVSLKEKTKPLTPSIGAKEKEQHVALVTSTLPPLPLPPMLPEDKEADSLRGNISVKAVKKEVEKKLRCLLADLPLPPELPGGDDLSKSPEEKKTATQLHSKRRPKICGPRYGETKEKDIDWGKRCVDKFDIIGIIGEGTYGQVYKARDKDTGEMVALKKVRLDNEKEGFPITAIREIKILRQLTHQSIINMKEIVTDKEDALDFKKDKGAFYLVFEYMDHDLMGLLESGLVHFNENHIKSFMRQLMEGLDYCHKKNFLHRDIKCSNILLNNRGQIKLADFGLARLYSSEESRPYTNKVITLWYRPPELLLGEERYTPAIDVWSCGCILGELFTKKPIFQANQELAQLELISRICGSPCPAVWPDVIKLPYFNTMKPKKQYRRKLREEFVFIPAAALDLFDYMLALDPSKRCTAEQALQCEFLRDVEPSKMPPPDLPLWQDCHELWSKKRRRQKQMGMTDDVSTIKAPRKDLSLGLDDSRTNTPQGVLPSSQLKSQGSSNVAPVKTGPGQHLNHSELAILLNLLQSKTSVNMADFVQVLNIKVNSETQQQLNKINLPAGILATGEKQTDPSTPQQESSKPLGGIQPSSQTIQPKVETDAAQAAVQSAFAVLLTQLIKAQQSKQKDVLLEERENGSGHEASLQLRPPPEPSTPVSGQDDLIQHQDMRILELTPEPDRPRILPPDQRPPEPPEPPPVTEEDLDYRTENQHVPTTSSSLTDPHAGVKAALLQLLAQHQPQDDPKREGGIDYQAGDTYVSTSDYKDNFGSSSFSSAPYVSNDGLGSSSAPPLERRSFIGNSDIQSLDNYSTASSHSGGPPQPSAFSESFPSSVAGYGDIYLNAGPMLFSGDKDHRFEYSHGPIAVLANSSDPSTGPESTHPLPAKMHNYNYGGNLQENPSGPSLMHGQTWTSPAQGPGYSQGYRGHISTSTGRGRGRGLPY
DYRK1B (human), sequence (Q9Y463 whole entry, looked up): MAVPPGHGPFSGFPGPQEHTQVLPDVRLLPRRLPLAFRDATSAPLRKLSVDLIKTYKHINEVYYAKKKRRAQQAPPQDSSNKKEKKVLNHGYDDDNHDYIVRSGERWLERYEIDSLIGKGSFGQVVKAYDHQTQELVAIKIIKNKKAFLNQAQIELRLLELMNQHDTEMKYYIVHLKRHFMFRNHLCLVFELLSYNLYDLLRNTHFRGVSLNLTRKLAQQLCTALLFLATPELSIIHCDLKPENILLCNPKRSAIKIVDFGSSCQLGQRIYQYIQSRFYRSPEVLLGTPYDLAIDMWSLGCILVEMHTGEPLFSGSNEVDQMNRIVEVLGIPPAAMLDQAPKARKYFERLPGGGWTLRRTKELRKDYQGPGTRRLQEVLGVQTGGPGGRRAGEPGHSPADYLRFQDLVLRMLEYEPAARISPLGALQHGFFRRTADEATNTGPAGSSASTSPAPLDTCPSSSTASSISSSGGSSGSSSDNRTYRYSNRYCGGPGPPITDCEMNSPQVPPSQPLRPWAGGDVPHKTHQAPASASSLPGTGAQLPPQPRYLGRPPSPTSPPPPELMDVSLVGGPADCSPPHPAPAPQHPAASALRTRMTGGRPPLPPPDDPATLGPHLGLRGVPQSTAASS
PRKAA1 (human), sequence (Q13131 whole entry, looked up): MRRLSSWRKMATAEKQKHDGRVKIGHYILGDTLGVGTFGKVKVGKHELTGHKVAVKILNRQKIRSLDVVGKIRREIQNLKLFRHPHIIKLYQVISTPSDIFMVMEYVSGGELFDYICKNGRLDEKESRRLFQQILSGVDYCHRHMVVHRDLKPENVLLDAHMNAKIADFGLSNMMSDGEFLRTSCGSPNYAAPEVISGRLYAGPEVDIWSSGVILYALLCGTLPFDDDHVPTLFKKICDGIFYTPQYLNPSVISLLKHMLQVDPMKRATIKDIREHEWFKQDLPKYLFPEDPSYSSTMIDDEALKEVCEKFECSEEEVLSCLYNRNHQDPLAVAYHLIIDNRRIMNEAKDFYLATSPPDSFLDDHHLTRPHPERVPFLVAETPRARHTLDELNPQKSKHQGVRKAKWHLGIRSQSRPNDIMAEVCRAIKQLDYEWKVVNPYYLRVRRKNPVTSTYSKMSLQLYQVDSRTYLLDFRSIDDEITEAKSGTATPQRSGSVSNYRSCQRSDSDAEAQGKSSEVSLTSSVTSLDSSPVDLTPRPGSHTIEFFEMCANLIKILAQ
EPHA6 (human), sequence (Q9UF33 whole entry, looked up): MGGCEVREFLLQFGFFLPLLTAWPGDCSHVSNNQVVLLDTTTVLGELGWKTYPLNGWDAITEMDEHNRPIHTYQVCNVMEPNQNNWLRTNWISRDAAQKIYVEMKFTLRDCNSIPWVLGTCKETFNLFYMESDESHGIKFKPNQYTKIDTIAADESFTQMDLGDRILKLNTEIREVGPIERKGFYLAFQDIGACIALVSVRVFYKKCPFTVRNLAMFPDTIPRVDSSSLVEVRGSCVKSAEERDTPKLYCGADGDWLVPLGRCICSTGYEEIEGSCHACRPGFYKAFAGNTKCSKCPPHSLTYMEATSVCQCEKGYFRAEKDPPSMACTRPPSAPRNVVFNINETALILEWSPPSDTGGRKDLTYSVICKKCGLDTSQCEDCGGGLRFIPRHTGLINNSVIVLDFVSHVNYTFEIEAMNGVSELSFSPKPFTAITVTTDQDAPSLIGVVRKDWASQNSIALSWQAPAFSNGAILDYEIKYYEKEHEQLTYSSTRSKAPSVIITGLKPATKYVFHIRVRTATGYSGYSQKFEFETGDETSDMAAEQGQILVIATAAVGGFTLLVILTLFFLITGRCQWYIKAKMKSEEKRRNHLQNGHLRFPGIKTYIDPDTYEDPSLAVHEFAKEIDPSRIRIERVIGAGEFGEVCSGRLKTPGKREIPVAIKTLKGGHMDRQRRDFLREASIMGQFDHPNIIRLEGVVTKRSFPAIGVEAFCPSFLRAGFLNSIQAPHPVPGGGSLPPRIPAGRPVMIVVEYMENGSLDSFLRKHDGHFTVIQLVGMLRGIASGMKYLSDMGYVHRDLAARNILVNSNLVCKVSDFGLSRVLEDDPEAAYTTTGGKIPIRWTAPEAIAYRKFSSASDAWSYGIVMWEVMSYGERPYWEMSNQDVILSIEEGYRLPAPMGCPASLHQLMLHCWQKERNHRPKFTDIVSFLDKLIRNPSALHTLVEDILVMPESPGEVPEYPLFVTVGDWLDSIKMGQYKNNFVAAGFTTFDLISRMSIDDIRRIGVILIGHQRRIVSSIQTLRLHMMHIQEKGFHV

Structure (SMILES)	kinase still bound, per cent of control [1]	kinase still bound, per cent of control [2]	kinase still bound, per cent of control [3]	kinase still bound, per cent of control [4]	kinase still bound, per cent of control [5]	kinase still bound, per cent of control [6]	kinase still bound, per cent of control [7]	kinase still bound, per cent of control [8]	kinase still bound, per cent of control [9]	kinase still bound, per cent of control [10]	kinase still bound, per cent of control [11]	kinase still bound, per cent of control [12]	kinase still bound, per cent of control [13]	kinase still bound, per cent of control [14]	kinase still bound, per cent of control [15]	kinase still bound, per cent of control [16]	kinase still bound, per cent of control [17]	kinase still bound, per cent of control [18]	kinase still bound, per cent of control [19]	kinase still bound, per cent of control [20]	other results
CNC(=O)Nc1ccc(-c2nc(N3CC4CCC(C3)O4)c3cnn(C4CCC5(CC4)OCCO5)c3n2)cc1	100%	88%	100%	93%	82%	83%	85%	4.4%	100%	75%	84%	90%	80%	78%	100%	80%	84%	100%	100%	92%	kinase still bound, per cent of control [21]: 100%; kinase still bound, per cent of control [22]: 100%; kinase still bound, per cent of control [23]: 100%; kinase still bound, per cent of control [24]: 98%; kinase still bound, per cent of control [25]: 100%; kinase still bound, per cent of control [26]: 94%; kinase still bound, per cent of control [27]: 100%; kinase still bound, per cent of control [28]: 93%; kinase still bound, per cent of control [29]: 100%; kinase still bound, per cent of control [30]: 100%; kinase still bound, per cent of control [31]: 100%; kinase still bound, per cent of control [32]: 100%; kinase still bound, per cent of control [33]: 95%; kinase still bound, per cent of control [34]: 100%; kinase still bound, per cent of control [35]: 98%; kinase still bound, per cent of control [36]: 100%; kinase still bound, per cent of control [37]: 93%; kinase still bound, per cent of control [38]: 100%; kinase still bound, per cent of control [39]: 100%; kinase still bound, per cent of control [40]: 100%
N#C/C(=C1/Nc2ccccc2S1)c1ccnc(NCCc2cccnc2)n1	78%	8.5%	9.6%	98%	86%	92%	0.25%	84%	75%	95%	92%	10%	87%	100%	1%	100%	61%	16%	20%	89%	kinase still bound, per cent of control [21]: 2.3%; kinase still bound, per cent of control [22]: 78%; kinase still bound, per cent of control [23]: 100%; kinase still bound, per cent of control [24]: 22%; kinase still bound, per cent of control [25]: 100%; kinase still bound, per cent of control [26]: 100%; kinase still bound, per cent of control [27]: 100%; kinase still bound, per cent of control [28]: 0.8%; kinase still bound, per cent of control [29]: 45%; kinase still bound, per cent of control [30]: 45%; kinase still bound, per cent of control [31]: 48%; kinase still bound, per cent of control [32]: 23%; kinase still bound, per cent of control [33]: 78%; kinase still bound, per cent of control [34]: 83%; kinase still bound, per cent of control [35]: 99%; kinase still bound, per cent of control [36]: 96%; kinase still bound, per cent of control [37]: 81%; kinase still bound, per cent of control [38]: 54%; kinase still bound, per cent of control [39]: 100%; kinase still bound, per cent of control [40]: 23%
